Measurements published in patent US7786054B2, “Biocide for well stimulation and treatment fluids” (Kemira Chemicals, Inc., priority 2006, dated 2010).
Entries after “also recorded” stand apart in the source; their conditions may differ.

Experiments:
[1] = Effect of biocide on the oxygen scavenger (oxygen reduction potential); assay type: physicochemical; conditions: 500 ppm biocide; 120 ppm SMBS; pH 6.4; FIG. 5
Procedure: In the following examples, an in-house constructed Inversion Loop was modified with a Grace M3500 viscometer for periodically measuring fluid viscosity as a function of time. The ORP apparatus included a HACH sensION pH meter with a combination ORP electrode. In Example 7, a friction loop apparatus was employed
To a beaker containing 500 milliliters of deionized water, a 120 ppm dose of sodium metabisulfite (SMBS) was added and the pH and oxygen reduction potential (ORP) were recorded. Once stabilized, phosphate buffer was added to increase the pH to 6.4 and the ORP recorded. Finally, the particular biocide tested was added at a concentration of 500 ppm. The ORP was recorded initially and after a period of 10 minutes.

[2] = test system: acid producing bacteria (AB); test: Biocidal effectiveness on acid producing bacteria in spiked frac pond water, serial dilution counts over 180 days with challenges; assay type: cell-based
Procedure: (§1) In this example, the biocidal effectiveness on sulfate reducing bacteria (SRB) and acid producing bacteria (AB) for biocide formulations containing CB Thione and WB Thione to Glut and THPS was examined.
(§2) A one gallon sample was separated from a five gallon sample of frac pond water for these studies. The frac pond water sample included SRB and AB. Ten mL of a 10^9 cfu/mL inoculum of SRB grown in anaerobic API broth containing an O2 scavenger and 10 mL of a 10^9 cfu/mL inoculum of AB grown in anaerobic phenol red (anPR) broth containing an O2 scavenger were added to the one gallon frac pond water sample, mixed well and allowed to incubate for a period of time sufficient to achieve a desired number of SRB and AB. All broth media for inoculum and serial dilution counts in this study was made at 4% salinity to match the salinity of the original frac pond water measured by total dissolved solids testing. To increase nutrient value and to emulate on-site friction reducing additives, a 30 weight % acrylic acid, 70% acrylamide copolymer was added to the inoculated gallon of frac pond water sample at 300 ppm and then referred to as the spiked frac pond water sample. The spiked sample was then divided into 99.0 g aliquots for testing the effect of various biocides at various concentrations on the SRB and AB over a 180 day contact time. One spiked aliquot would serve as the control sample to which no biocide would be added. Challenges were made to all aliquots using 0.5 mL of 10^8 SRB and 0.5 mL, of 10^8 AB at 14, 28, and 129 days contact time.
(§3) The biocides included a 20% water based Thione (WB Thione), a 24% caustic based Thione (CB Thione), a 25% Glut, and a 35% THPS. Stock biocide solutions of various concentrations were made from these biocides as described below.
(§4) The WB Thione stock solutions were prepared by adding 3.0 g of the biocide to 17.0 g of sterile distilled water to form an intermediate solution, followed by combining each intermediate solution with water in the accounts shown in Table 1 below to make the descending concentrations as shown in Table 1.
as §4, with “The CB” for “The WB”, “the amounts” for “the accounts”, “Table 2” for “Table 1”, “Table 2.” for “Table 1.”
(§5) The Glut stock solutions were prepared by adding 1.0 g biocide to 19.0 g of sterile distilled water to form an intermediate solution, followed by combining each intermediate solution with water in the amounts shown in Table 3 below to make the descending concentrations as shown in Table 3.
(§6) The THPS stock solutions were prepared by adding 1.0 g of the biocide to 19.0 g of sterile distilled water to form an intermediate solution, followed by combining each intermediate solution with water in the amounts shown in Table 4 below to make the descending concentrations as shown in Table 4.
(§7) Next, 1 g of each biocide stock solution was added to the appropriately labeled 99.0 g aliquot. Also, 1.0 g of sterile water was added to the control aliquot. The concentrations of the biocides present in each aliquot are provided below in Table 5.
(§8) The aliquots were then incubated at room temperature in the dark for the entire study, i.e., 6 months. […] Using sterile syringes, this testing was performed by serial diluting the aliquots into sealed 9.0 mL anaerobic API broth and anaerobic PR broth bottles, both media containing an O2 scavenger, in the appropriate labeled set of SRB bottles (6 for each aliquot) mid AB bottles (6 for each aliquot) until a color change occurred, indicating the log quantity of organisms present in each aliquot.

[3] = test system: sulfate reducing bacteria (SRB); test: Biocidal effectiveness on sulfate reducing bacteria in spiked frac pond water, serial dilution counts over 180 days with challenges; assay type: cell-based
Procedure: as §1, §2, §3, §4
as §4, with “The CB” for “The WB”, “the amounts” for “the accounts”, “Table 2” for “Table 1”, “Table 2.” for “Table 1.”
as §5, §6, §7, §8

[4] = 500 ppm as is (Glut, THPS), 7 Days
[5] = 500 ppm as is (Glut, THPS), 14 Days
[6] = 500 ppm as is (Glut, THPS), 21 Days
[7] = 500 ppm as is (Glut, THPS), 28 Days
[8] = 500 ppm as is (Glut, THPS), 35 Days
[9] = 500 ppm as is (Glut, THPS), 42 Days
[10] = 500 ppm as is (Glut, THPS), 58 Days
[11] = 500 ppm as is (Glut, THPS), 90 Days
[12] = up to 180 days contact time, challenges at 14, 28 and 129 days

O=CCCCC=O [Glut, glutaraldehyde]
ORP after 10 minutes of residence time [1]: increases nearly to the level of the DI H2O alone
ORP response upon initial addition of biocide [1]: does not significantly impact ORP
Log 10 Anaerobic Acid Producing Bacteria/mL ([2]; 50 ppm as is, 7 Days): 0 Log 10 Bacteria/mL
Log 10 Anaerobic Acid Producing Bacteria/mL ([2]; 50 ppm as is, 14 Days): 0 Log 10 Bacteria/mL
Log 10 Anaerobic Acid Producing Bacteria/mL ([2]; 50 ppm as is, 21 Days): 1 Log 10 Bacteria/mL
Log 10 Anaerobic Acid Producing Bacteria/mL ([2]; 50 ppm as is, 28 Days): 0 Log 10 Bacteria/mL
Log 10 Anaerobic Acid Producing Bacteria/mL ([2]; 50 ppm as is, 35 Days): ≧3 Log 10 Bacteria/mL
Log 10 Anaerobic Acid Producing Bacteria/mL ([2]; 50 ppm as is, 42 Days): ≧6 Log 10 Bacteria/mL
Log 10 Anaerobic Acid Producing Bacteria/mL ([2]; 50 ppm as is, 58 Days): ≧6 Log 10 Bacteria/mL
Log 10 Anaerobic Acid Producing Bacteria/mL ([2]; 50 ppm as is, 90 Days): ≧5 Log 10 Bacteria/mL
Log 10 Anaerobic Acid Producing Bacteria/mL ([2]; 100 ppm as is, 7 Days): 0 Log 10 Bacteria/mL
Log 10 Anaerobic Acid Producing Bacteria/mL ([2]; 100 ppm as is, 14 Days): 0 Log 10 Bacteria/mL
Log 10 Anaerobic Acid Producing Bacteria/mL ([2]; 100 ppm as is, 21 Days): 0 Log 10 Bacteria/mL
Log 10 Anaerobic Acid Producing Bacteria/mL ([2]; 100 ppm as is, 28 Days): 0 Log 10 Bacteria/mL
Log 10 Anaerobic Acid Producing Bacteria/mL ([2]; 100 ppm as is, 35 Days): ≧3 Log 10 Bacteria/mL
Log 10 Anaerobic Acid Producing Bacteria/mL ([2]; 100 ppm as is, 42 Days): ≧6 Log 10 Bacteria/mL
Log 10 Anaerobic Acid Producing Bacteria/mL ([2]; 100 ppm as is, 58 Days): ≧6 Log 10 Bacteria/mL
Log 10 Anaerobic Acid Producing Bacteria/mL ([2]; 100 ppm as is, 90 Days): ≧6 Log 10 Bacteria/mL
Log 10 Anaerobic Acid Producing Bacteria/mL ([2]; 200 ppm as is, 7 Days): 0 Log 10 Bacteria/mL
Log 10 Anaerobic Acid Producing Bacteria/mL ([2]; 200 ppm as is, 14 Days): 1 Log 10 Bacteria/mL
Log 10 Anaerobic Acid Producing Bacteria/mL ([2]; 200 ppm as is, 21 Days): 0 Log 10 Bacteria/mL
Log 10 Anaerobic Acid Producing Bacteria/mL ([2]; 200 ppm as is, 28 Days): 0 Log 10 Bacteria/mL
Log 10 Anaerobic Acid Producing Bacteria/mL ([2]; 200 ppm as is, 35 Days): ≧3 Log 10 Bacteria/mL
Log 10 Anaerobic Acid Producing Bacteria/mL ([2]; 200 ppm as is, 42 Days): ≧5 Log 10 Bacteria/mL
Log 10 Anaerobic Acid Producing Bacteria/mL ([2]; 200 ppm as is, 58 Days): ≧6 Log 10 Bacteria/mL
Log 10 Anaerobic Acid Producing Bacteria/mL ([2]; 200 ppm as is, 90 Days): ≧6 Log 10 Bacteria/mL
Log 10 Anaerobic Acid Producing Bacteria/mL [2, 4]: 0 Log 10 Bacteria/mL
Log 10 Anaerobic Acid Producing Bacteria/mL [2, 5]: 0 Log 10 Bacteria/mL
Log 10 Anaerobic Acid Producing Bacteria/mL [2, 6]: 0 Log 10 Bacteria/mL
Log 10 Anaerobic Acid Producing Bacteria/mL [2, 7]: 0 Log 10 Bacteria/mL
Log 10 Anaerobic Acid Producing Bacteria/mL [2, 8]: ≧3 Log 10 Bacteria/mL
Log 10 Anaerobic Acid Producing Bacteria/mL [2, 9]: 4 Log 10 Bacteria/mL
Log 10 Anaerobic Acid Producing Bacteria/mL [2, 10]: ≧6 Log 10 Bacteria/mL
Log 10 Anaerobic Acid Producing Bacteria/mL [2, 11]: ≧6 Log 10 Bacteria/mL
control of AB in frac pond water (summary in words) [2, 12]: lost all control of SRB and AB after the 2nd challenge on day 28
Log 10 Anaerobic Sulfate Reducing Bacteria/mL ([3]; 50 ppm as is, 7 Days): 0 Log 10 Bacteria/mL
Log 10 Anaerobic Sulfate Reducing Bacteria/mL ([3]; 50 ppm as is, 14 Days): 0 Log 10 Bacteria/mL
Log 10 Anaerobic Sulfate Reducing Bacteria/mL ([3]; 50 ppm as is, 21 Days): 0 Log 10 Bacteria/mL
Log 10 Anaerobic Sulfate Reducing Bacteria/mL ([3]; 50 ppm as is, 28 Days): 0 Log 10 Bacteria/mL
Log 10 Anaerobic Sulfate Reducing Bacteria/mL ([3]; 50 ppm as is, 35 Days): ≧3 Log 10 Bacteria/mL
Log 10 Anaerobic Sulfate Reducing Bacteria/mL ([3]; 50 ppm as is, 42 Days): ≧6 Log 10 Bacteria/mL
Log 10 Anaerobic Sulfate Reducing Bacteria/mL ([3]; 50 ppm as is, 58 Days): ≧6 Log 10 Bacteria/mL
Log 10 Anaerobic Sulfate Reducing Bacteria/mL ([3]; 50 ppm as is, 90 Days): ≧5 Log 10 Bacteria/mL
Log 10 Anaerobic Sulfate Reducing Bacteria/mL ([3]; 100 ppm as is, 7 Days): 0 Log 10 Bacteria/mL
Log 10 Anaerobic Sulfate Reducing Bacteria/mL ([3]; 100 ppm as is, 14 Days): 0 Log 10 Bacteria/mL
Log 10 Anaerobic Sulfate Reducing Bacteria/mL ([3]; 100 ppm as is, 21 Days): 0 Log 10 Bacteria/mL
Log 10 Anaerobic Sulfate Reducing Bacteria/mL ([3]; 100 ppm as is, 28 Days): 0 Log 10 Bacteria/mL
Log 10 Anaerobic Sulfate Reducing Bacteria/mL ([3]; 100 ppm as is, 35 Days): ≧3 Log 10 Bacteria/mL
Log 10 Anaerobic Sulfate Reducing Bacteria/mL ([3]; 100 ppm as is, 42 Days): ≧6 Log 10 Bacteria/mL
Log 10 Anaerobic Sulfate Reducing Bacteria/mL ([3]; 100 ppm as is, 58 Days): ≧5 Log 10 Bacteria/mL
Log 10 Anaerobic Sulfate Reducing Bacteria/mL ([3]; 100 ppm as is, 90 Days): ≧5 Log 10 Bacteria/mL
Log 10 Anaerobic Sulfate Reducing Bacteria/mL ([3]; 200 ppm as is, 7 Days): 0 Log 10 Bacteria/mL
Log 10 Anaerobic Sulfate Reducing Bacteria/mL ([3]; 200 ppm as is, 14 Days): 0 Log 10 Bacteria/mL
Log 10 Anaerobic Sulfate Reducing Bacteria/mL ([3]; 200 ppm as is, 21 Days): 0 Log 10 Bacteria/mL
Log 10 Anaerobic Sulfate Reducing Bacteria/mL ([3]; 200 ppm as is, 28 Days): 0 Log 10 Bacteria/mL
Log 10 Anaerobic Sulfate Reducing Bacteria/mL ([3]; 200 ppm as is, 35 Days): ≧3 Log 10 Bacteria/mL
Log 10 Anaerobic Sulfate Reducing Bacteria/mL ([3]; 200 ppm as is, 42 Days): ≧6 Log 10 Bacteria/mL
Log 10 Anaerobic Sulfate Reducing Bacteria/mL ([3]; 200 ppm as is, 58 Days): ≧6 Log 10 Bacteria/mL
Log 10 Anaerobic Sulfate Reducing Bacteria/mL ([3]; 200 ppm as is, 90 Days): ≧6 Log 10 Bacteria/mL
Log 10 Anaerobic Sulfate Reducing Bacteria/mL [3, 4]: 0 Log 10 Bacteria/mL
Log 10 Anaerobic Sulfate Reducing Bacteria/mL [3, 5]: 0 Log 10 Bacteria/mL
Log 10 Anaerobic Sulfate Reducing Bacteria/mL [3, 6]: 0 Log 10 Bacteria/mL
Log 10 Anaerobic Sulfate Reducing Bacteria/mL [3, 7]: 0 Log 10 Bacteria/mL
Log 10 Anaerobic Sulfate Reducing Bacteria/mL [3, 8]: ≧3 Log 10 Bacteria/mL
Log 10 Anaerobic Sulfate Reducing Bacteria/mL [3, 9]: 5 Log 10 Bacteria/mL
Log 10 Anaerobic Sulfate Reducing Bacteria/mL [3, 10]: ≧6 Log 10 Bacteria/mL
Log 10 Anaerobic Sulfate Reducing Bacteria/mL [3, 11]: ≧6 Log 10 Bacteria/mL
control of SRB in frac pond water (summary in words) [3, 12]: lost all control of SRB and AB after the 2nd challenge on day 28; also recorded: failed completely at all concentrations after challenging twice at 14 and 28 days contact time
